US20250163057A1, “DCN-1 MODULATING COMPOUNDS AND METHODS OF USE THEREOF” (Cellarity, Inc., priority 2023, published 2025)
Where two headings read alike, the source gives them in different places.

Key:
DCN1 protein = DCN1 protein (Homo sapiens (Human), UniProt Q96GG9); assay: Intact Protein MS Analysis with the RapidFire-TOF System (covalent adduct formation); format: binding; conditions: MS Emax; 400 nM DCN1, 3 hours at room temperature
In short: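 Tag-cleaved human DCN1 (400 nM) expressed in E. coli, in 25 mM Tris-HCl, 200 mM NaCl, 1 mM DTT, was incubated with 11 compound concentrations for 3 h at room temperature and quenched with 0.2% formic acid. Intact-protein Q-TOF MS with deconvolution detected the compound adduct mass.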

[1] = test system: Cullin-3 (CUL3) neddylation; assay: AlphaLISA assay for Cullin-3 (CUL3) neddylation in TF 1 cells; format: cell-based; conditions: Homo sapiens, TF-1, 3 h, 3 hours treatment
In short: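 Neddylated CUL3 was quantified by AlphaLISA in lysates of TF 1 cells exposed for 3 h to test compound in IMDM without supplements. Percent inhibition set between vehicle and 1 μM DI-1548 positive control; IC50 derived by Hill-equation fitting of dose-response curves.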

[2] = test system: fetal hemoglobin gene HBG1; assay: HBG1 Nanostring Assay in CD34+ HSPC erythroid differentiation culture; format: cell-based, human; conditions: for EC50: Homo sapiens, 240 h, HBG1 induction, Day10 of erythroid differentiation; for Nanostring Ymax obs (%): relative to a control compound (C1)
In short: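 HBG1 counts came from direct nCounter hybridization (67° C, 22 h) of day-10 lysates, normalized to ERCC positive controls and a housekeeping gene, giving EC50 and Ymax versus a reference compound. Compounds in 0.1% DMSO were present from day −2 while cells underwent EPO/SCF/IL-3 erythroid differentiation, with IL-3 dropped at day 7, at 37° C.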

[3] = target: DCN1 (DCUND1) protein PONY domain (Homo sapiens (Human), UniProt Q96GG9); assay: TR-FRET assay, DCN1 binding with FAM-labeled probe
In short: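 Binding was read as the TR-FRET ratio between a FAM-tagged inhibitor probe and Tb-labeled biotinylated E. coli-expressed DCN1 PONY domain, measured 1, 5 and 24 h after compound addition. The two setups used 5 nM protein/20 nM FAM-probe or 0.31 nM protein/900 nM total probe (100 nM labeled), in TritonX buffer with 200 mM NaCl.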

[4] = 24 hr after treatment with compound, read-out: TR FRET IC50 24 hr
[5] = read-out: TR FRET IC50 1 hr, 1 hr after treatment with compound
[6] = TR FRET IC50 1 hr (nM), 1 hr after treatment with compound

Sequence of DCN1 (DCUND1) protein PONY domain (Q96GG9 60-248): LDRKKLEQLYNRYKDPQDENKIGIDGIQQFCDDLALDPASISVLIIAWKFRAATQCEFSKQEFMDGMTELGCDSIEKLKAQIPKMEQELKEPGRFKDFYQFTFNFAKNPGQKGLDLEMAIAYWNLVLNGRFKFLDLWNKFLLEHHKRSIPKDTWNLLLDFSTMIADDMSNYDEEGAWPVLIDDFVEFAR
Sequence of DCN1 protein (Q96GG9 whole entry): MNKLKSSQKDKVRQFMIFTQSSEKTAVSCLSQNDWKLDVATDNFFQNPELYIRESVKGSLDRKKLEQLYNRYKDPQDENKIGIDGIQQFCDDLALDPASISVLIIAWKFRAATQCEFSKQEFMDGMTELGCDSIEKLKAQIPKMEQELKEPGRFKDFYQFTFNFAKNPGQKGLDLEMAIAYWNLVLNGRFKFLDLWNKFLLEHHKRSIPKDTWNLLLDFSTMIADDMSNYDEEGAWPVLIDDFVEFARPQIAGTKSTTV

| Structure (SMILES) | % Adduct Formation (DCN1 protein) | IC50 [1] [nM] | EC50 [2] [nM] | Nanostring Ymax obs (%) [2] | IC50 [3, 4] [nM] | IC50 [3, 5] [nM] | IC50 [3, 6] [nM] |
| --- | --- | --- | --- | --- | --- | --- | --- |
| C=C(CN1CCOCC1)C(=O)N[C@H](C)c1nn(-c2ccccc2)c2c1[C@H](c1ccc(F)cc1)[C@H](NC(=O)c1cccc(C(F)(F)F)c1)C(=O)N2CC (mixture of isomers) [Compound I-8] | + (MS Emax % adduct formation greater than or equal to 0.0 and less than or equal to 30.0) | 100 to 1000 | > 1000 | ++ (Nanostring Ymax greater than 50.0 and less than or equal to 100.0) | ≤ 200 | ≤ 200 |  |
| C=CS(=O)(=O)N[C@H](C)c1nn(-c2ccccc2)c2c1[C@H](c1ccc(F)cc1)[C@H](NC(=O)c1cccc(C(F)(F)F)c1)C(=O)N2CC (mixture of isomers) [Compound I-74] | +++ (MS Emax % adduct formation greater than 80.0 and less than or equal to 100.0) | ≤ 100 | 100 to 1000 | ++ (Nanostring Ymax greater than 50.0 and less than or equal to 100.0) | ≤ 200 | ≤ 200 |  |
| C=C(C(=O)NCc1nn(-c2ccccc2)c2c1[C@@H](c1ccc(F)cc1)[C@H](NC(=O)c1cccc(C(F)(F)F)c1)C(=O)N2CC)C(C)N1CCOCC1 (mixture of isomers) [Compound I-88] | + (MS Emax % adduct formation greater than or equal to 0.0 and less than or equal to 30.0) | ≤ 100 | > 1000 | + (Nanostring Ymax greater than or equal to 0.0 and less than or equal to 50.0) | ≤ 200 | ≤ 200 |  |
| CCN1C(=O)[C@@H](NC(=O)c2cccc(C(F)(F)F)c2)[C@@H](c2ccc(F)cc2)c2c(NC(=O)[C@@H](C)Cl)nn(-c3ccccc3)c21 (mixture of isomers) [Compound I-101] | + (MS Emax % adduct formation greater than or equal to 0.0 and less than or equal to 30.0) | 100 to 1000 | > 1000 | ++ (Nanostring Ymax greater than 50.0 and less than or equal to 100.0) | 200 to 1000 |  | 200 to 1000 |
| C=CC(=O)N[C@@H](C)c1nn(-c2ccccc2)c2c1[C@H](c1ccc(F)cc1)[C@H](NC(=O)c1cccc(C(F)(F)F)c1)C(=O)N2CC (mixture of isomers) [Compound I-143] | + (MS Emax % adduct formation greater than or equal to 0.0 and less than or equal to 30.0) | > 1000 | > 1000 | + (Nanostring Ymax greater than or equal to 0.0 and less than or equal to 50.0) | 200 to 1000 |  | 200 to 1000 |
| CCN1C(=O)[C@@H](NC(=O)c2cccc(C(F)(F)F)c2)[C@@H](c2ccc(F)cc2)c2c(C(=O)N3CCCC[C@H]3C#N)nn(-c3ccccc3)c21 (mixture of isomers) [Compound I-270] | +++ (MS Emax % adduct formation greater than 80.0 and less than or equal to 100.0) | ≤ 100 | 100 to 1000 | ++ (Nanostring Ymax greater than 50.0 and less than or equal to 100.0) | ≤ 200 | ≤ 200 |  |
| CCN1C(=O)[C@@H](NC(=O)c2cccc(C(F)(F)F)c2)[C@@H](c2ccc(F)cc2)c2c(C(=O)N3C[C@H](F)C[C@H]3C#N)nn(-c3ccccc3)c21 (mixture of isomers) [Compound I-273] | +++ (MS Emax % adduct formation greater than 80.0 and less than or equal to 100.0) | ≤ 100 |  | +++ (Nanostring Ymax greater than 100.0) | ≤ 200 | ≤ 200 |  |
| CCN1C(=O)[C@@H](NC(=O)c2cccc(C(F)(F)F)c2)[C@@H](c2ccc(F)cc2)c2c(C(=O)N3CCC[C@H]3C#N)nn(C3CCOCC3)c21 (mixture of isomers) [Compound I-292] | +++ (MS Emax % adduct formation greater than 80.0 and less than or equal to 100.0) | ≤ 100 | ≤ 100 | +++ (Nanostring Ymax greater than 100.0) | ≤ 200 | ≤ 200 |  |
| CCN1C(=O)[C@@H](NC(=O)c2cccc(C(F)(F)F)c2)[C@@H](C)c2c(C(=O)N3[C@H](C#N)C[C@H]4C[C@H]43)nn(C3CCOCC3)c21 (mixture of isomers) [Compound I-386] | +++ (MS Emax % adduct formation greater than 80.0 and less than or equal to 100.0) | ≤ 100 | ≤ 100 | +++ (Nanostring Ymax greater than 100.0) | ≤ 200 | ≤ 200 |  |
| C=CS(=O)(=O)N(C)Cc1nn(-c2ccccc2)c2c1[C@H](c1ccc(F)cc1)[C@H](NC(=O)c1cccc(C(F)(F)F)c1)C(=O)N2CC (racemic) [Compound I-1] | +++ (MS Emax % adduct formation greater than 80.0 and less than or equal to 100.0) | ≤ 100 | > 1000 | ++ (Nanostring Ymax greater than 50.0 and less than or equal to 100.0) | ≤ 200 | ≤ 200 |  |
| C=C(CC(=O)NCc1nn(-c2ccccc2)c2c1[C@H](c1ccc(F)cc1)[C@H](NC(=O)c1cccc(C(F)(F)F)c1)C(=O)N2CC)C(=O)OC (racemic) [Compound I-4] | +++ (MS Emax % adduct formation greater than 80.0 and less than or equal to 100.0) | ≤ 100 | 100 to 1000 | ++ (Nanostring Ymax greater than 50.0 and less than or equal to 100.0) | ≤ 200 |  | ≤ 200 |
| CCN1C(=O)[C@@H](NC(=O)c2cccc(C(F)(F)F)c2)[C@@H](c2ccc(F)cc2)c2c(CNC(=O)C(C)(C)C#N)nn(-c3ccccc3)c21 (racemic) [Compound I-7, rac-N-((4R,5R)-3-((2-cyano-2-methylpropanamido)methyl)-7-ethyl-4-(4-fluorophenyl)-6-oxo-1-phenyl-4,5,6,7-tetrahydro-1H-pyrazolo[3,4-b]pyridine-5-yl)-3-(trifluoromethyl)benzamide] | + (MS Emax % adduct formation greater than or equal to 0.0 and less than or equal to 30.0) | 100 to 1000 | > 1000 | + (Nanostring Ymax greater than or equal to 0.0 and less than or equal to 50.0) | 1000 to 3000 |  | 1000 to 3000 |
| CCN1C(=O)[C@@H](NC(=O)c2cccc(C(F)(F)F)c2)[C@@H](c2ccc(F)cc2)c2c(CNC(=O)C#CCN(C)C)nn(-c3ccccc3)c21 (racemic) [Compound I-19, rac-N-((4R,5R)-3-((4-(dimethylamino)but-2-ynamido)methyl)-7-ethyl-4-(4-fluorophenyl)-6-oxo-1-phenyl-4,5,6,7-tetrahydro-1H-pyrazolo[3,4-b]pyridine-5-yl)-3-(trifluoromethyl)benzamide] | +++ (MS Emax % adduct formation greater than 80.0 and less than or equal to 100.0) | ≤ 100 | ≤ 100 | +++ (Nanostring Ymax greater than 100.0) | ≤ 200 |  | ≤ 200 |
| C=C(C)C(=O)NCc1nn(-c2ccccc2)c2c1[C@H](c1ccc(F)cc1)[C@H](NC(=O)c1cccc(C(F)(F)F)c1)C(=O)N2CC (racemic) [Compound I-206] | + (MS Emax % adduct formation greater than or equal to 0.0 and less than or equal to 30.0) | 100 to 1000 | > 1000 | + (Nanostring Ymax greater than or equal to 0.0 and less than or equal to 50.0) |  |  |  |
| CCN1C(=O)[C@@H](NC(=O)c2cccc(C(F)(F)F)c2)[C@@H](c2ccc(F)cc2)c2c(CN(C)C(=O)CCl)nn(-c3ccccc3)c21 (racemic) [Compound I-227] | ++ (MS Emax % adduct formation greater than 30.0 and less than or equal to 80.0) | ≤ 100 | 100 to 1000 | ++ (Nanostring Ymax greater than 50.0 and less than or equal to 100.0) |  |  |  |
| CCN1C(=O)[C@@H](NC(=O)c2cccc(C(F)(F)F)c2)[C@@H](c2ccc(F)cc2)c2c(CNC(=O)/C(C#N)=C/C(C)C)nn(-c3ccccc3)c21 (racemic) [Compound I-241] | +++ (MS Emax % adduct formation greater than 80.0 and less than or equal to 100.0) | ≤ 100 |  | + (Nanostring Ymax greater than or equal to 0.0 and less than or equal to 50.0) |  |  |  |
| CCN1C(=O)[C@@H](NC(=O)c2cccc(C(F)(F)F)c2)[C@@H](c2ccc(F)cc2)c2c([C@@H](C)NC(=O)C(C)Br)nn(-c3ccccc3)c21 (stereo in doubt) [Compound I-197] | + (MS Emax % adduct formation greater than or equal to 0.0 and less than or equal to 30.0) | > 1000 | > 1000 | ++ (Nanostring Ymax greater than 50.0 and less than or equal to 100.0) |  |  |  |
